Test results: patent US10561681B2, “Antimetastatic 2H-selenopheno[3,2-h]chromenes, synthesis thereof, and methods of using same agents” (Latvian Institute of Organic Synthesis, priority 2016, dated 2020)
Marks after values point to notes of the source that are not given here.

Columns and labels:
malignant tumor cells = experiment: In vitro cytotoxicity on monolayer tumor cell lines (panel, summary in words); assay type: cell-based; details: summary of Table 1
Procedure: Anticancer activity of selenopheno[h]chromenes was tested in vitro using cytotoxicity assay. Thus, monolayer tumor cell lines MDA-MB-435s (human melanoma), MCF-7 (human breast adenocarcinoma, estrogen-positive), MES-SA (human uterus sarcoma), HT-1080 (human fibrosarcoma), A549 (human lung carcinoma), SH-SY5Y (human neuroblastoma), CCL-8 (mouse sarcoma), MG-22A (mouse hepatoma), and HepG2 (human hepatocellular carcinoma) were cultured in standard medium DMEM (Dulbecco's modified Eagle's medium) (“Sigma”) supplemented with 10% fetal bovine serum (“Sigma”). About 2-9·10^4 cells/mL (depending on line nature) were placed in 96-well plates immediately after compounds were added to the wells. Untreated cells were used as a control. The plates were incubated for 72 h, 37° C., 5% CO2. The number of surviving cells was determined using 3-(4,5-dimethylthiazol-2-yl)-2,5-diphenyltetrazolinium bromide (MTT). MTT-test: after incubating culture medium was removed and 200 μL fresh medium with 10 mM HEPES was added in each well of the plate, than 20 μL MTT (2 mg/mL in HBSS) was added. After incubation (3 hr, 37° C., 5% CO2), the medium with MTT was removed and 200 μL DMSO were added at once to each sample. The samples were tested at 540 nm on Anthos HT II photometer.

[1] = Acute p.o. toxicity, Up-and-Down Procedure (OECD 425); details: mouse, in vivo, po; p.o. single dose, 6 weeks old male ICR mice
Procedure: Acute p.o. toxicity (LD50) was estimated by the Up-and-Down Procedure according to the OECD Test Guideline 425 [OECD (2001) Guideline for testing of chemicals OECD 425, acute oral toxicity—Up-and-Down Procedure, Paris, p. 1-26]. Animals were observed daily for clinical signs or mortality over a period of two weeks following the treatment. Compounds were dissolved in DMSO and then in PBS (pH 7.4; DMSO final concentration <1%). The test substance was administered in a single dose p.o. to mice. […]
Acute toxicity in vivo has been determined for I-10 and I-11 on 6 weeks old male ICR mice.

4T1 cells = experiment: Orthotropic model of 4T1 murine metastatic breast cancer in BALB/c mice; assay type: in vivo, mouse; details: 4T1 orthotropic; for Increase of spleen weight (splenomegaly) compared with healthy animals: control with tumors 316%
Procedure: Orthotropic model of mouse breast cancer was developed by injection of 4T1 cells in the mammary fat pad of syngeneic BALB/c mice. In this case, 4T1 cells develops solid tumors following by metastasis in lung, liver, lymph nodes, and brain (Aslakson at al., Cancer Res, 1992, 52, 1399-1405).
In our experiments seven-week-old female BALB/c mice were injected orthotopically into the fourth mammary fat pad with 10^5 4T1 cells suspended in 0.01 mL of PBS on day zero of the study. The compounds dissolved in DMSO, diluted with 0.1 mL water (DMSO final concentration 1%) and injected s.c. The compounds were administered at 1, 2, 3, 11 days, dose 20 mg/kg. Mice in the untreated group were similarly given four doses of 0.1 mL of water with DMSO. Tumor volume (tumor volume V=[…], wherein “a” is the maximal, and “b”—the minimal tumor diameter) was calculated twice per week. The mice were examined every other day on appearance, weight and behavior. The mice were sacrificed at day 16 of the experiment by decapitation under ketamine/xylazine anesthesia. After euthanasia, the mice were dissected. The primary tumor, liver and spleen were removed, weighed and studied. All metastases in the internal organs were described.

[2] = tested on: Lewis lung carcinoma (LLC); experiment: Mouse non-metastatic cancer model, Lewis lung carcinoma s.c. in BALB/c mice; assay type: in vivo; details: s.c. Day 1, 2, 3, 4, 7, 8, 9, 10, 11; dose 20 mg/kg, total dose 180 mg/kg
Procedure: (§1) Six-week-old female ICR and BALB/c mice were purchased from the University of Tartu Laboratory Animal Centre (Estonia). The mice were housed five to a cage, and under standard conditions (21-23° C., 12 h light: dark cycle), fed ad libitum (R3 diet, Lactamin AB, Kimstad, Sweden) and observed daily. The experimental procedures involving experimental animals were carried out in accordance with the guidelines of the European Community, local laws and policies, and were approved by the Latvian Animal Protection Ethical Committee, the Food and Veterinary Service, Riga, Latvia.
(§2) In vivo studies were performed utilizing the mouse sarcoma CCRF-S180 II (CCL-8) and Lewis lung carcinoma (LLC) cell line. All cell lines were purchased from ATCC. The cells were grown in Dulbecco's modified Eagle's medium (Sigma) supplemented with 10% fetal calf serum (Sigma).
ICR mice were subcutaneously inoculated in the back with 5×10^6 CCL-8 cells and BALB/c mice were inoculated with 1×10^6 LLC (Lewis Lung Carcinoma) cells, which were suspended in 0.1 mL of PBS on day zero of the study. The compounds dissolved in DMSO and then in 0.1 mL water (DMSO final concentration 1%) were injected s.c. Mice in the untreated group were similarly given doses of 0.1 mL of water with DMSO. Tumor volume (tumor volume V=[…], a is maximal and b the minimal tumor diameter) was recorded twice per week. […]

B16-F10 melanoma cells = experiment: Melanoma model of lung metastasis in C57BL/6 mice; assay type: in vivo, mouse; details: total dose 140 mg/kg; for Inhibition of melanoma metastasis in lung: s.c. Day 1, 7, 8, 9, 10, 11, 14, 20 mg/kg, day 21; for Animals (group of six) without melanoma metastasis: s.c.
Procedure: B16-F10 cells (10,000/0.1 ml PBS) were injected i.v. into syngeneic mice. The number of macroscopic lung metastases was determined 21 days later.
C57BL/6 mice were injected with 100,000 B16-F10 melanoma cells into the mice via the tail vein and treatment started 24 hr later with subcutaneous injections (s.c.) of compounds administered according to the following scheme: 1, 7, 8, 9, 10, 11 and 14th days in dose 20 mg/kg. Mice in the control group were similarly given doses of 0.1 mL of water with DMSO (DMSO final concentration <1%). Twenty-one days later, all mice were anesthetized with ketamine/xylazine and euthanized, the mice were sacrificed and the black melanoma nodules on the lungs were measured. In each experiment, mice were weighed twice weekly.

[3] = tested on: mouse sarcoma CCRF-S180 II (CCL-8); experiment: Mouse non-metastatic cancer model, sarcoma CCL-8 s.c. in ICR mice; assay type: in vivo; details: s.c. Day 1, 2, 3, 4, 7, 8, 9, 10, 11; dose 5 mg/kg, total dose 45 mg/kg
Procedure: as §1, §2
ICR mice were subcutaneously inoculated in the back with 5×10^6 CCL-8 cells and BALB/c mice were inoculated with 1×10^6 LLC (Lewis Lung Carcinoma) cells, which were suspended in 0.1 mL of PBS on day zero of the study. The compounds dissolved in DMSO and then in 0.1 mL water (DMSO final concentration 1%) were injected s.c. Mice in the untreated group were similarly given doses of 0.1 mL of water with DMSO. Tumor volume (tumor volume V=[…], a is maximal and b the minimal tumor diameter) was recorded twice per week. The mice were examined every other day for diseases including appearance, weight and behavior. The mice were sacrificed at day 16 of the experiment by decapitation after ketamine/xylazine anesthesia.

Compound | Cytotoxicity on cancer cell lines (malignant tumor cells) | LD50 at 2 weeks [1] | Formation of metastases (4T1 cells) | Increase of spleen weight (splenomegaly) compared with healthy animals (4T1 cells) | Anticancer activity in vivo (inhibition, %), Lewis Lung Carcinoma primary tumor growth [2] | Inhibition of melanoma metastasis in lung (B16-F10 melanoma cells) | Animals (group of six) without melanoma metastasis (B16-F10 melanoma cells) | Anticancer activity in vivo (inhibition, %), CCL-8 tumor volume [3]
COC(=O)c1cc2ccc3c(Br)c(CN4CCN(C)CC4)[se]c3c2oc1=O [Compound I-10, Methyl 7-bromo-8-((4-methylpiperazin-1-yl)methyl)-2-oxo-2H-selenopheno[3,2-h]chromene-3-carboxylate] | low toxic to the cancer cell lines | 891 mg/kg | dramatically reduces the formation of metastases | 256% | 34% | 74% | five | 42** %
O=C(O)c1cc2ccc3c(Br)c(C4(O)CCCCC4)[se]c3c2oc1=O [Compound I-11, 7-Bromo-8-(1-hydroxycyclohexyl)-2-oxo-2H-selenopheno[3,2-h]chromene-3-carboxylic acid] | complete loss of cytotoxicity | > 2000 mg/kg | dramatically reduces the formation of metastases | 198% |  | 96% | four | 58* %
